Converted amounts (≈) assume the structure as drawn. Where only a bound is given, the exact number is not on record here.

Data set [1] in a line: In vitro solubility. The class given is physicochemical.
For data set [2] the following is noted: across animal species; cited from earlier work.
Data set [3] is described as follows: clinical. Conditions: human, plasma, po.
Data set [4] relates to alpha-1-acid glycoprotein (AAG). Nature of the data set: SPR-based biosensor. The class given is binding. Conditions: human.
The subject of data set [5] is human hepatocytes. As to conditions: in vitro; cited from earlier work.
Data set [6] addresses AAG. Conditions: cited from earlier work.

The solubility is how much of the substance goes into solution per volume. High values mean a readily soluble substance, low ones a poorly soluble substance. What is called half-life is the time in which the quantity being followed falls by half. Usually AUC(0-t) stands for the area under the concentration-time curve up to a stated or last time point. A low value points to less exposure. By Cmax is commonly meant the maximum level reached in the sampled fluid or tissue. The Kd is a measure of binding affinity in units of concentration. For the compound `CS(=O)(=O)c1ccc(C(=O)Nc2ccc(Cl)c(-c3ccccn3)c2)c(Cl)c1` [GDC-0449, 2-chloro-N-[4-chloro-3-(pyridin-2-yl)phenyl]-4-[methylsulfonyl]benzamide], the solubility is 990 µg/mL (≈ 2350 µM) in data set [1] (pH 0.1) and 0.1 µg/mL (≈ 0.237 µM) in data set [1] (pH 6.5). Further, the Oral bioavailability result in data set [2] was “good”. In addition, the half-life in data set [3] was more than 168 h. The AUC(0-t) in data set [3] (150 mg) amounted to 322 ± 185 µM·h; in data set [3] (270 mg) it was 839 ± 458 µM·h; in data set [3] (540 mg), 1010 µM·h. For the same compound, the Cmax in data set [3] (150 mg) turned out to be 3.58 ± 1.34 µM; in data set [3] (270 mg), 6.34 ± 3.4 µM; in data set [3] (540 mg) it was 6.81 ± 2.69 µM. The compound also displayed a Kd in data set [4] of 13 µM. The “Compound remaining intact following coincubations with human hepatocytes” value in data set [5] was approximately 100%.
For the compound `CN[C@@H]1C[C@H]2O[C@@](C)([C@@H]1OC)n1c3ccccc3c3c4c(c5c6ccccc6n2c5c31)C(=O)N[C@H]4O` [UCN-01], the “KD for AAG (corresponding to reported KA)” value in data set [6] was 0.00125 µM.

Source of the values: paper PMC3703823 (Clinical cancer research : an official journal of the …, 2011).
